pIC50: −log10 of the molar value.
Key:
BRAF V600E = BRAF V600E (Homo sapiens (Human), UniProt P15056, V600E); assay: Inhibitory activity against kinase BRAF V600E, Z'-LYTE method (Invitrogen); type: biochemical; details: 1 μM compound; read-out: Inhibition (% inhibition at 1 μM) against BRAF V600E
Protocol: (§1) Inhibitory activities Inhibitory activities of compounds against BRAF, and BRAF V600E were measured by Invitrogen using Z′-LYTE® Method as briefly described in the following. 4× Test compounds are dissolved in 1% DMSO. […] ATP solutions are diluted to a 4×ATP working concentration in Kinase Buffer (50 mM HEPES pH 7.5, 0.01% BRIJ-35, 10 mM MgCl2, 1 mM EGTA). Reaction started by 30-second shaking of mixture consisting of 2.5 μL 4× test compound, […] and 2.5 μL 4×ATP Solution on Bar-coded Corning, low volume NBS, black 384-well plate (Corning Cat. #3676). Then the mixture was incubated for 60-minute at room temperature for the kinase reaction, followed by addition of 5 μL of a 1:1024 dilution of development reagent A and 30-second plate shake. The mixture was then incubated for another 60-minute at room temperature for development reaction. Fluorescence was read by plate reader. IC50 was calculated by plotting the concentration of compound vs the percentage of inhibition in treated wells using GraphPad Prism 5.
(§2) Table 2 and 3 show % inhibition at 1 μM of several compounds of the invention against BRAF and BRAF V600E, respectively, using Z′-LYTE® method.
The scale utilized in Table 4 is as follows: +++ less than 100 nM; and ++ greater than 100 nM.

KDR (VEGFR2) = KDR (VEGFR2) (Homo sapiens (Human), UniProt P35968); assay: Inhibitory activity against kinase KDR, Z'-LYTE method (Invitrogen); type: biochemical; details: 1 μM compound; read-out: Inhibition (% inhibition at 1 μM) against KDR
Protocol: Inhibitory activities of compounds against KDR (VEGFR2) were also measured by Invitrogen using Z′-LYTE® Method as described above with the following modification. The 2× KDR (VEGFR2)/Tyr 01 mixture is prepared in 50 mM HEPES pH 7.5, 0.01% BRIJ-35, 10 mM MgCl2, 1 mM EGTA. The final 10 μL Kinase Reaction consists of 0.5-11.7 ng KDR (VEGFR2) and 2 μM Tyr 01 in 50 mM HEPES pH 7.5, 0.01% BRIJ-35, 10 mM MgCl2, 1 mM EGTA. After the 1 hour Kinase Reaction incubation, 5 μL of a 1:256 dilution of Development Reagent B is added.
The scale utilized in Table 5 is as follows: +++ less than 100 nM; and ++ greater than 100 nM

A375 cells = assay: Inhibition of cancer cell growth, MTT or MTS assay, A375; type: cell-based; details: Homo sapiens, A-375; 72 h incubation
Protocol: (§3) Inhibition of cell growth by compounds was measured using MTT or MTS assay. Tumor cell lines were purchased from ATCC (American Type Culture Collection, Manassas, Va.). All cell lines were maintained in RPMI 1640 (Hyclone) supplemented with 10% fetal bovine serum (FBS, Hyclone), glutamine (2 mM, Hyclone), and antibiotics (penicillin 100 U/mL and streptomycin 50 μg/mL) at 37° C. in a humidified atmosphere of 5% CO2 in air. Taxol (as a positive control, Sigma) and compounds were dissolved in DMSO (Sigma), and the final concentration of DMSO in the medium was 1%. Tumor cells were plated in 96-well plates at densities of about 2000 (A375) or 4000 (A549 and Colo205) cells/well of a 96-well plate and allowed to adhere/grow for 24 h. They were then treated with various concentrations of drug and incubated for 72 h. For MTT method, medium was then removed by inverting and tapping the plates. 100 μL of MTT (0.5 mg/ml) was added to each well followed by an incubated at 37° C. for 4 h. MTT was then removed and 200 μL of DMSO was added to each well, and the ODs at 570 nm were measured after a 5 second shaking cycle in a 96-well spectrophotometer. For MTS method, 20 μL MTS (CellTiter 96 Aqueous One Solution, Promega) was added to each well followed by an incubated at 37° C. for 2-4 h, solutions were then directly put in a 96-well spectrophotometer, and the ODs at 490 nm were measured.
(§4) All concentrations of compounds were tested in triplicate and controls were averaged over 4 wells. IC50 was calculated by plotting the concentration of compound vs the percentage of inhibition in treated wells using GraphPad Prism 5. […] The scale utilized in Tables […] is as follows: +++ less than 1000 nM; ++ between 1000 nM and 5000 nM; and + greater than 5000 nM. The scale utilized in Table 8 is as follows: +++ less than 2000 nM; ++ between 2000 nM and 5000 nM; and + greater than 5000 nM.

A549 cells = assay: Inhibition of cancer cell growth, MTT or MTS assay, A549; type: cell-based; details: Homo sapiens, 72 h incubation
Protocol: as §3, §4

BRAF = BRAF (Homo sapiens (Human), UniProt P15056); assay: Inhibitory activity against kinase BRAF, Z'-LYTE method (Invitrogen); type: biochemical; details: 1 μM compound
Protocol: as §1, §2

BRAF, sequence (P15056 whole entry): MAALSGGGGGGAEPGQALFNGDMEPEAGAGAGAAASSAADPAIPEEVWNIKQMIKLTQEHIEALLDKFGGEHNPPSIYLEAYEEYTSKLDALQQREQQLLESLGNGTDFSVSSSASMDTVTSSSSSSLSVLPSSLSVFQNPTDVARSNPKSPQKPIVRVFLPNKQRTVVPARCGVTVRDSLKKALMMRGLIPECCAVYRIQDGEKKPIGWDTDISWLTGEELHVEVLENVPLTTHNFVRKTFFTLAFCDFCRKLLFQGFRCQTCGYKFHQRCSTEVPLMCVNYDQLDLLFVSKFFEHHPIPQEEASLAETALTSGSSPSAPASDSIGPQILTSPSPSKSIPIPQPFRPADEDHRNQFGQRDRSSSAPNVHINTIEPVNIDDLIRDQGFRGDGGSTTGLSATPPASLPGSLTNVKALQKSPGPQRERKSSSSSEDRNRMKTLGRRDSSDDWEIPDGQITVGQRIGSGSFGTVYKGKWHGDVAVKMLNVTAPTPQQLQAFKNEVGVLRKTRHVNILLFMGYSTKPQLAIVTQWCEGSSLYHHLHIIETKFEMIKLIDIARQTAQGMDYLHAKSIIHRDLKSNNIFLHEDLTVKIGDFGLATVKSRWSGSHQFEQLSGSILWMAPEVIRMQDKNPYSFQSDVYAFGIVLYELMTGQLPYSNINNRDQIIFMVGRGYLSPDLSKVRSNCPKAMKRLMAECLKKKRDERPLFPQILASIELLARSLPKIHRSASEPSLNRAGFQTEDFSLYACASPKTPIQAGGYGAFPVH
BRAF V600E, sequence (P15056 whole entry V600E): as the sequence (P15056 whole entry) above, with V600E counted along it
KDR (VEGFR2), sequence (P35968 20-1356): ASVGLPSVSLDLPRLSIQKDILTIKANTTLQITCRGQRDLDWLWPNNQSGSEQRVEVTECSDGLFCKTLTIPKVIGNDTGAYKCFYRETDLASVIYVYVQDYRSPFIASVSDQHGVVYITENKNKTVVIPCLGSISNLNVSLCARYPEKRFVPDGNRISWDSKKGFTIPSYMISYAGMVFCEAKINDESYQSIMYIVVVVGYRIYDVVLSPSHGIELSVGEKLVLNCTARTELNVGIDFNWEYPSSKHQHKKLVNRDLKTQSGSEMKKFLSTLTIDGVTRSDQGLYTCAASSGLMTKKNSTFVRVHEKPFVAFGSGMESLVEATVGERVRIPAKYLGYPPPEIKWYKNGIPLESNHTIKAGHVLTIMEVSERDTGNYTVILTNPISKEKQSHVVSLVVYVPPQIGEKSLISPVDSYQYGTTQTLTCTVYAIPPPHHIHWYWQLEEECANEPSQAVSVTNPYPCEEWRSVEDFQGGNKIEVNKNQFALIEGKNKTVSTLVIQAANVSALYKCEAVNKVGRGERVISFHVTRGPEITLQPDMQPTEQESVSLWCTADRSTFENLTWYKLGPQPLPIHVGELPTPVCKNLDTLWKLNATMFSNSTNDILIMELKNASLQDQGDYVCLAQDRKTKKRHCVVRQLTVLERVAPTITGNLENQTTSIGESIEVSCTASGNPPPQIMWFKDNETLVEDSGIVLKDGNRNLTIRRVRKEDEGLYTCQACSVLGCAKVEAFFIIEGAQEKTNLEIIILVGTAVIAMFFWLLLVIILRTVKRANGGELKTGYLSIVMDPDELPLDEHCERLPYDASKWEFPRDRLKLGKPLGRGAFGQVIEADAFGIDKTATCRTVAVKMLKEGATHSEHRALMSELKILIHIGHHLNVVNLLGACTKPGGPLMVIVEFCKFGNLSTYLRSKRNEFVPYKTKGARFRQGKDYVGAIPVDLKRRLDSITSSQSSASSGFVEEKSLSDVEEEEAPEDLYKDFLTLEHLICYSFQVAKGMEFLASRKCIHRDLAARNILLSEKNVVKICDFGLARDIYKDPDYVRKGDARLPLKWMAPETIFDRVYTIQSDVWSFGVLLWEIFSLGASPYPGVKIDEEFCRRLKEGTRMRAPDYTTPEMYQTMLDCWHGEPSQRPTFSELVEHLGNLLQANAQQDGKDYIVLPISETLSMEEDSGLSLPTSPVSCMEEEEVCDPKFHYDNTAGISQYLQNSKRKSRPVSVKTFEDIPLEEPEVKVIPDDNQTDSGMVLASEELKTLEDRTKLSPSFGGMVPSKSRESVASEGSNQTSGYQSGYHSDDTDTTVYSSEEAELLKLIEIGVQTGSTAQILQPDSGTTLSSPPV

Row | Compound | inhibition at 1 µM (BRAF V600E) [%] | inhibition at 1 µM (KDR (VEGFR2)) [%] | pIC50 (A375 cells) | pIC50 (A549 cells) | inhibition at 1 µM (BRAF) [%]
1 | O=C(Nc1cc(F)cc(Oc2ccc3ncc(N4CCOCC4)nc3c2)c1)Nc1ccc(Cl)c(C(F)(F)F)c1 [Compound C033, 1-(4-chloro-3-(trifluoromethyl)phenyl)-3-(3-fluoro-5-((3-morpholinoquinoxalin-6-yl)oxy)phenyl)urea] | 70 to 89 | 70 to 89 | > 6.00 | > 5.70 | 
2 | O=C(Nc1cccc(C(F)(F)F)c1)Nc1ccc(F)c(Oc2ccc3ncc(N4CCOCC4)nc3c2)c1 [Compound C035, 1-(4-fluoro-3-((3-morpholinoquinoxalin-6-yl)oxy)phenyl)-3-(3-(trifluoromethyl)phenyl)urea] | 70 to 89 | 70 to 89 | > 6.00 | 5.30 to 5.70 | 
3 | O=C(Nc1cccc(Oc2ccc3ncc(N4CCNCC4)nc3c2)c1)Nc1ccc(F)c(F)c1 [Compound C036, 1-(3,4-difluorophenyl)-3-(3-((3-(piperazin-1-yl)quinoxalin-6-yl)oxy)phenyl)urea] | > 89 | > 89 |  | < 5.30 | > 89
4 | O=C(Nc1ccc(F)cc1)Nc1cccc(Oc2ccc3ncc(N4CCNCC4)nc3c2)c1 [Compound C038, 1-(4-fluorophenyl)-3-(3-((3-(piperazin-1-yl)quinoxalin-6-yl)oxy)phenyl)urea] | > 89 | > 89 |  | < 5.30 | > 89
5 | O=C(Nc1cc(F)cc(F)c1)Nc1cccc(Oc2ccc3ncc(N4CCNCC4)nc3c2)c1 [Compound C039, 1-(3,5-difluorophenyl)-3-(3-((3-(piperazin-1-yl)quinoxalin-6-yl)oxy)phenyl)urea] | > 89 | 70 to 89 |  | < 5.30 | > 89
6 | O=C(Nc1cccc(Oc2ccc3ncc(N4CCNCC4)nc3c2)c1)Nc1cccc(C(F)(F)F)c1 [Compound C040, 1-(3-((3-(piperazin-1-yl)quinoxalin-6-yl)oxy)phenyl)-3-(3-(trifluoromethyl)phenyl)urea] | > 89 | > 89 |  | 5.30 to 5.70 | > 89
7 | O=C(Nc1cccc(Oc2ccc3ncc(N4CCNCC4)nc3c2)c1)Nc1ccc(Cl)c(C(F)(F)F)c1 [Compound C041, 1-(4-chloro-3-(trifluoromethyl)phenyl)-3-(3-((3-(piperazin-1-yl)quinoxalin-6-yl)oxy)phenyl)urea] | > 89 | > 89 |  | > 5.70 | > 89
8 | O=C(Nc1ccc(F)cc1)Nc1cccc(Oc2ccc3ncc(N4CCOCC4)nc3c2)c1 [Compound C043, 1-(4-fluorophenyl)-3-(3-((3-morpholinoquinoxalin-6-yl)oxy)phenyl)urea] | > 89 | > 89 |  | < 5.30 | 70 to 89
9 | O=C(Nc1cccc(Oc2ccc3ncc(N4CCOCC4)nc3c2)c1)Nc1ccc(F)c(F)c1 [Compound C044, 1-(3,4-difluorophenyl)-3-(3-((3-morpholinoquinoxalin-6-yl)oxy)phenyl)urea] | > 89 | 70 to 89 |  | < 5.30 | 70 to 89
10 | O=C(Nc1cccc(Oc2ccc3ncc(N4CCOCC4)nc3c2)c1)Nc1cccc(C(F)(F)F)c1 [Compound C046, 1-(3-((3-morpholinoquinoxalin-6-yl)oxy)phenyl)-3-(3-(trifluoromethyl)phenyl)urea] | > 89 | 70 to 89 | 5.30 to 6.00 | 5.30 to 5.70 | 
11 | O=C(Nc1cccc(Oc2ccc3ncc(N4CCOCC4)nc3c2)c1)Nc1ccc(Cl)c(C(F)(F)F)c1 [Compound C049, 1-(4-chloro-3-(trifluoromethyl)phenyl)-3-(3-((3-morpholinoquinoxalin-6-yl)oxy)phenyl)urea] | 70 to 89 | > 89 |  | 5.30 to 5.70 | 70 to 89
12 | O=C(Nc1cccc(Cl)c1)Nc1cccc(Oc2ccc3ncc(N4CCNCC4)nc3c2)c1 [Compound C050, 1-(3-chlorophenyl)-3-(3-((3-(piperazin-1-yl)quinoxalin-6-yl)oxy)phenyl)urea] | > 89 | > 89 |  | 5.30 to 5.70 | > 89
13 | O=C(Nc1ccc(Cl)cc1)Nc1cccc(Oc2ccc3ncc(N4CCNCC4)nc3c2)c1 [Compound C051, 1-(4-chlorophenyl)-3-(3-((3-(piperazin-1-yl)quinoxalin-6-yl)oxy)phenyl)urea] | > 89 | > 89 |  | 5.30 to 5.70 | > 89
14 | O=C(Nc1cccc(F)c1)Nc1ccc(F)c(Oc2ccc3ncc(N4CCNCC4)nc3c2)c1 [Compound C059, 1-(4-fluoro-3-((3-(piperazin-1-yl)quinoxalin-6-yl)oxy)phenyl)-3-(3-fluorophenyl)urea] | > 89 | 70 to 89 |  | 5.30 to 5.70 | > 89
15 | O=C(Nc1ccc(Oc2ccc3nccnc3c2)cc1)Nc1ccc(Cl)c(C(F)(F)F)c1 [Compound C076, 1-(4-chloro-3-(trifluoromethyl)phenyl)-3-(4-(quinoxalin-6-yloxy)phenyl)urea] | 70 to 89 | 70 to 89 | 5.30 to 6.00 | < 5.30 | 
16 | O=C(Nc1ccc(Oc2ccc3ncc(N4CCOCC4)nc3c2)cc1)Nc1ccc(Cl)c(C(F)(F)F)c1 [Compound C084, 1-(4-chloro-3-(trifluoromethyl)phenyl)-3-(4-((3-morpholinoquinoxalin-6-yl)oxy)phenyl)urea] | 70 to 89 | > 89 | 5.30 to 6.00 | 5.30 to 5.70 | 
17 | O=C(Nc1ccc(Oc2ccc3ncc(N4CCOCC4)nc3c2)cc1)Nc1ccc(F)c(C(F)(F)F)c1 [Compound C086, 1-(4-fluoro-3-(trifluoromethyl)phenyl)-3-(4-((3-morpholinoquinoxalin-6-yl)oxy)phenyl)urea] | 70 to 89 | > 89 | 5.30 to 6.00 | 5.30 to 5.70 | 
18 | O=C(Nc1ccc(Cl)c(C(F)(F)F)c1)Nc1ccc(Oc2ccc3nccnc3c2)cc1F [Compound C095, 1-(4-chloro-3-(trifluoromethyl)phenyl)-3-(2-fluoro-4-(quinoxalin-6-yloxy)phenyl)urea] | < 70 | 70 to 89 | < 5.30 | 5.30 to 5.70 | 
19 | O=C(Nc1ccc(F)c(C(F)(F)F)c1)Nc1ccc(Oc2ccc3nccnc3c2)cc1F [Compound C098, 1-(4-fluoro-3-(trifluoromethyl)phenyl)-3-(2-fluoro-4-(quinoxalin-6-yloxy)phenyl)urea] | 70 to 89 | < 70 | 5.30 to 6.00 | < 5.30 | 

From patent US10590106B2, “Certain chemical entities, compositions, and methods” (NeuPharma, Inc., priority 2012, dated 2020)
